The results in this text go back to BindingDB's records for doi:10.1016/0960-894X(95)00287-4 (1995).

Experiment [1] is described as follows: Inhibitory activity against Opioid receptor delta 1 binding to bovine striatal membrane.
A short description of experiment [2]: Inhibitory activity against Opioid receptor kappa1 binding to bovine striatal membrane.

Usually IC50 stands for the point on the concentration scale where inhibition reaches its midpoint. Higher therefore signals weaker potency.

Take `CN1CC[C@]23c4c5ccc(O)c4O[C@@]2(C)C(=O)CC[C@@]3(NC(=O)CSSCC(=O)N[C@@]23CCC(=O)[C@]4(C)Oc6c(O)ccc7c6[C@@]42CCN(C)C3C7)C1C5` [MET-TAMO and N-CPM-MET-TAMO analogue]: the values for the half-maximal inhibitory concentration (IC50) in experiment [1] and in experiment [2] were 52 nM and 89 nM, respectively.
For `C[C@@]12Oc3c(O)ccc4c3[C@@]13CCN(CC1CC1)[C@H](C4)[C@]3(NC(=O)CSSCC(=O)N[C@@]13CCC(=O)[C@]4(C)Oc5c(O)ccc6c5[C@@]41CCN(CC1CC1)[C@@H]3C6)CCC2=O`, in that order: 5.3 nM and 7.7 nM.
